The results in this text go back to PubChem BioAssay AID192 (DTP/NCI, 2004).

“And” between values parts separate entries of the source, which are not always exact repeats. Equal values may be shown once. Inconclusive results and toxic doses are left out.

The assay deals with BDF1 mice, B16 melanoma ip, median survival T/C. Put plainly: NCI In Vivo Anticancer Drug Screen. Data for tumor model B16 Melanoma (intraperitoneal) in B6D2F1 (BDF1) mice. The conditions noted are these: endpoint: median survival time, higher = longer survival. The method in brief: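 Values are ratios of treated (T) to vehicle-control (C) measurements of survival or tumor size in tumor-bearing mice.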

The mark [1] stands for this setting: dose: 6.25 mg/kg/injection, schedule: Q01DX009 (ip), vehicle: saline with Tween-80.
Setting [2] is: dose: 12.5 mg/kg/injection, schedule: Q01DX009 (ip), vehicle: saline with Tween-80.
The mark [3] stands for this setting: dose: 25.0 mg/kg/injection, schedule: Q01DX009 (ip), vehicle: saline with Tween-80.
[4] abbreviates: dose: 200.0 mg/kg/injection, schedule: Q01DX009 (ip), vehicle: saline with Tween-80.
Setting [5] is: dose: 1.56 mg/kg/injection, schedule: Q01DX009 (ip), vehicle: saline.
The mark [6] stands for this setting: dose: 6.25 mg/kg/injection, schedule: Q01DX009 (ip), vehicle: saline.

As for `O=Cc1ccc([N+](=O)[O-])s1`, the T/C runs as follows: (dose: 3.12 mg/kg/injection, schedule: Q01DX009 (ip), vehicle: saline with Tween-80) 99 % of control; under setting [1], 96 % of control; under setting [2], 96 % of control; under setting [3], 86 % of control.

As for `[N-]=C(CC(=O)c1ccccc1)c1ccccc1.[N-]=C(CC(=O)c1ccccc1)c1ccccc1.[Ni+2]`, the T/C was 86 % of control (dose: 3.0 mg/kg/injection, schedule: Q04DX003 (ip), vehicle: Klucel (hydroxypropylcellulose) (HPC)); 93 % of control (dose: 6.0 mg/kg/injection, schedule: Q04DX003 (ip), vehicle: Klucel (hydroxypropylcellulose) (HPC)); 88 % of control (dose: 12.0 mg/kg/injection, schedule: Q04DX003 (ip), vehicle: Klucel (hydroxypropylcellulose) (HPC)).

`O=C(NP(=O)(N1CC1)N1CC1)c1cc(I)ccc1I`: the T/C is 100 % of control (dose: 1.0 mg/kg/injection, schedule: Q02DX009 (ip), vehicle: saline with Tween-80); 104 % of control (dose: 1.0 mg/kg/injection, schedule: Q02DX009 (ip), vehicle: saline); 106 % of control (dose: 2.0 mg/kg/injection, schedule: Q02DX009 (ip), vehicle: saline with Tween-80); 107 % of control (dose: 2.0 mg/kg/injection, schedule: Q02DX009 (ip), vehicle: saline); 93 % of control (dose: 4.0 mg/kg/injection, schedule: Q02DX009 (ip), vehicle: saline with Tween-80); 98 % of control (dose: 4.0 mg/kg/injection, schedule: Q02DX009 (ip), vehicle: saline). In addition, the T/C is 120 % of control (dose: 8.0 mg/kg/injection, schedule: Q02DX009 (ip), vehicle: saline with Tween-80); 112 % of control (dose: 8.0 mg/kg/injection, schedule: Q02DX009 (ip), vehicle: saline); 116 % of control (dose: 16.0 mg/kg/injection, schedule: Q02DX009 (ip), vehicle: saline); 107 % of control (dose: 32.0 mg/kg/injection, schedule: Q02DX009 (ip), vehicle: saline); 92 % of control (dose: 64.0 mg/kg/injection, schedule: Q02DX009 (ip), vehicle: saline with Tween-80); 101 % of control (dose: 64.0 mg/kg/injection, schedule: Q02DX009 (ip), vehicle: saline).

With `CCCCCCCCCCCCCCCCCCCCCC(=O)Nc1ccn(C2OC(CO)C(O)C2O)c(=O)n1` (stereo not given), the T/C under setting [1] is 102 % of control, the T/C under setting [2] was 102 % of control, the T/C under setting [3] was 119 % of control and the T/C under setting [4] was 163 % of control.

On to `CC(C)c1cccc(C(C)C)c1OC(=O)Nc1ccccc1Cl`, for which the T/C is, setting by setting: (dose: 100.0 mg/kg/injection, schedule: Q04DX003 (ip), vehicle: Klucel (hydroxypropylcellulose) (HPC)) 100 % of control; (dose: 200.0 mg/kg/injection, schedule: Q04DX003 (ip), vehicle: Klucel (hydroxypropylcellulose) (HPC)) 96 % of control.

As to `OCCN1CCN(CC/C=C2\c3ccccc3COc3ccc(Cl)cc32)CC1`, the T/C was 105 % of control (dose: 2.0 mg/kg/injection, schedule: Q01DX009 (ip), vehicle: saline) and 113 % of control (dose: 4.0 mg/kg/injection, schedule: Q01DX009 (ip), vehicle: saline).

Take `Cc1ccc(C)c(CCN)c1`: the T/C by setting is: under setting [2], 104 % of control; under setting [3], 97 % of control.

`OCC1OC(n2cnc3c(SCc4ccccc4)ncnc32)C(O)C1O` (stereo not given): under “dose: 37.5 mg/kg/injection, schedule: Q01DX009 (ip), vehicle: saline with Tween-80”, the T/C is 121 % of control.

For `CC1CCCCC1NC(=O)NCCOC(=O)OCCNC(=O)NC1CCCCC1C` (stereo not given), the T/C (dose: 100.0 mg/kg/injection, schedule: Q01DX009 (ip), vehicle: saline with Tween-80) is 97 % of control; the T/C under setting [4] is 95 % of control; the T/C (dose: 400.0 mg/kg/injection, schedule: Q01DX009 (ip), vehicle: saline with Tween-80) was 97 % of control.

Regarding `O=C(NCCCN1CC1)C(=O)NCCCN1CC1`, the T/C by setting is: under setting [5], 165 % of control; (dose: 3.13 mg/kg/injection, schedule: Q01DX009 (ip), vehicle: saline) 194 % of control; under setting [6], 96 % of control.

As for `Cc1c2ccncc2c(C)c2c1[nH]c1ccccc12`, the T/C is 109 % of control (dose: 1.25 mg/kg/injection, schedule: Q01DX009 (ip), vehicle: saline); 102 % of control (dose: 1.25 mg/kg/injection, schedule: Q01DX009 (ip), vehicle: water); 113 % of control (dose: 2.5 mg/kg/injection, schedule: Q01DX009 (ip), vehicle: saline); 103 % of control and 110 % of control (dose: 2.5 mg/kg/injection, schedule: Q01DX009 (ip), vehicle: water); 120 % of control (dose: 5.0 mg/kg/injection, schedule: Q01DX009 (ip), vehicle: saline); 110 % of control and 114 % of control (dose: 5.0 mg/kg/injection, schedule: Q01DX009 (ip), vehicle: water). For the same molecule, the T/C is 106 % of control (dose: 8.0 mg/kg/injection, schedule: Q01DX005 (iv), vehicle: saline with Tween-80); 117 % of control and 121 % of control (dose: 12.5 mg/kg/injection, schedule: Q04DX003 (ip), vehicle: distilled water + Tween-80); 171 % of control (dose: 16.0 mg/kg/injection, schedule: Q01DX005 (ip), vehicle: saline with Tween-80); 110 % of control (dose: 16.0 mg/kg/injection, schedule: Q01DX005 (iv), vehicle: saline with Tween-80); 110 % of control (dose: 16.0 mg/kg/injection, schedule: Q01DX005 (oral), vehicle: saline with Tween-80); 119 % of control (dose: 25.0 mg/kg/injection, schedule: Q04DX003 (ip), vehicle: distilled water + Tween-80). Besides, the T/C (dose: 32.0 mg/kg/injection, schedule: Q01DX005 (ip), vehicle: saline with Tween-80) is 191 % of control; the T/C (dose: 32.0 mg/kg/injection, schedule: Q01DX005 (oral), vehicle: saline with Tween-80) is 108 % of control; the T/C (dose: 50.0 mg/kg/injection, schedule: Q04DX003 (ip), vehicle: Klucel (hydroxypropylcellulose) (HPC)) was 154 % of control; the T/C (dose: 64.0 mg/kg/injection, schedule: Q01DX005 (oral), vehicle: saline with Tween-80) is 117 % of control; the T/C (dose: 100.0 mg/kg/injection, schedule: Q04DX003 (ip), vehicle: distilled water + Tween-80) is 153 % of control.

Turning to `COc1cc2ccc3c[n+]4ccccc4cc3c2cc1OC`, the T/C reads like this: (dose: 25.0 mg/kg/injection, schedule: Q04DX009 (ip), vehicle: Klucel (hydroxypropylcellulose) (HPC)) 97 % of control; (dose: 50.0 mg/kg/injection, schedule: Q04DX009 (ip), vehicle: Klucel (hydroxypropylcellulose) (HPC)) 93 % of control; (dose: 100.0 mg/kg/injection, schedule: Q04DX009 (ip), vehicle: Klucel (hydroxypropylcellulose) (HPC)) 89 % of control; (dose: 150.0 mg/kg/injection, schedule: Q04DX009 (ip), vehicle: Klucel (hydroxypropylcellulose) (HPC)) 95 % of control.

On to `C(=N/NC1=NCCN1)/c1c2ccccc2c(/C=N\NC2=NCCN2)c2ccccc12`, for which the T/C reads like this: (dose: 0.78 mg/kg/injection, schedule: Q01DX009 (ip), vehicle: saline) 156 % of control; under setting [5], 181 % of control; (dose: 3.12 mg/kg/injection, schedule: Q01DX009 (ip), vehicle: saline) 205 % of control; under setting [6], 225 % of control; (dose: 12.5 mg/kg/injection, schedule: Q01DX009 (ip), vehicle: saline) 294 % of control.

With `CCN(C(=O)CCl)C(C)(C)C(SSSC(c1ccc(Cl)cc1)C(C)(C)N(CC)C(=O)CCl)c1ccc(Cl)cc1` (stereo not given), the T/C runs as follows: (dose: 12.5 mg/kg/injection, schedule: Q01DX009 (ip), vehicle: Klucel (hydroxypropylcellulose) (HPC)) 100 % of control; (dose: 25.0 mg/kg/injection, schedule: Q01DX009 (ip), vehicle: Klucel (hydroxypropylcellulose) (HPC)) 98 % of control.

In the case of `CN(C)C=Nc1ccccc1`, the T/C reads like this: (dose: 100.0 mg/kg/injection, schedule: Q01DX009 (ip), vehicle: Klucel (hydroxypropylcellulose) (HPC)) 100 % of control; (dose: 200.0 mg/kg/injection, schedule: Q01DX009 (ip), vehicle: Klucel (hydroxypropylcellulose) (HPC)) 112 % of control; (dose: 400.0 mg/kg/injection, schedule: Q01DX009 (ip), vehicle: Klucel (hydroxypropylcellulose) (HPC)) 109 % of control.

As to `COC(=O)C(C)CN1CCCCCC1` (stereo not given), the T/C was 108 % of control (dose: 50.0 mg/kg/injection, schedule: Q04DX003 (ip), vehicle: saline); 102 % of control (dose: 100.0 mg/kg/injection, schedule: Q04DX003 (ip), vehicle: saline); 100 % of control (dose: 200.0 mg/kg/injection, schedule: Q04DX003 (ip), vehicle: saline).
